How the values were obtained:
mouse TGR5 receptor = target: T1, mouse TGR5 receptor (Mus musculus, UniProt Q80SS6); test: Mouse TGR5 HTRF cAMP production assay (HEK293-EBNA cells, Cisbio cAMP HiRange kit); type: cell-based; details: HEK293-EBNA cells overexpressing mouse TGR5, HTRF cAMP assay
T1 construct: host or cells: HEK293-EBNA (293 c18, ATCC CRL10852)
T1 sequence (Q80SS6 1-329): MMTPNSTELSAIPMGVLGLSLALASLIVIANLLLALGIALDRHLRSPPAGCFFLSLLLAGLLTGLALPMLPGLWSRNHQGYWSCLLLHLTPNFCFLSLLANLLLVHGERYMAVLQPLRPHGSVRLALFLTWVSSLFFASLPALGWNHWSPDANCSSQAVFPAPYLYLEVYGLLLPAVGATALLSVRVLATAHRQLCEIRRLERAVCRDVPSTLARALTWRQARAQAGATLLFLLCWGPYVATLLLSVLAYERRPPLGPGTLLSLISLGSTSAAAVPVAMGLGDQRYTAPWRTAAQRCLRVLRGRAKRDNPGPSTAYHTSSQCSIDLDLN
In short: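 HEK293-EBNA cells stably expressing mouse TGR5 (episomal vector) were suspended in serum-free DMEM with 500 μM IBMX and exposed to 12-point half-log compound dilutions for 1 h at room temperature. cAMP was detected by HTRF (d2-cAMP/anti-cAMP cryptate, 1 h, room temperature), giving EC50 from duplicates.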

human TGR5 receptor = target: T2, human TGR5 receptor (Homo sapiens, UniProt Q8TDU6); test: Human TGR5 cAMP production assay (hTGR5-CHO cells, DiscoveRx cAMP XS+ kit); type: cell-based; details: luminescent cAMP assay, read-out: Human TGR5 Lum. cAMP Activity (EC50)
T2 construct: host or cells: CHO-K1 (hTGR5-CHO)
T2 sequence (Q8TDU6 1-330): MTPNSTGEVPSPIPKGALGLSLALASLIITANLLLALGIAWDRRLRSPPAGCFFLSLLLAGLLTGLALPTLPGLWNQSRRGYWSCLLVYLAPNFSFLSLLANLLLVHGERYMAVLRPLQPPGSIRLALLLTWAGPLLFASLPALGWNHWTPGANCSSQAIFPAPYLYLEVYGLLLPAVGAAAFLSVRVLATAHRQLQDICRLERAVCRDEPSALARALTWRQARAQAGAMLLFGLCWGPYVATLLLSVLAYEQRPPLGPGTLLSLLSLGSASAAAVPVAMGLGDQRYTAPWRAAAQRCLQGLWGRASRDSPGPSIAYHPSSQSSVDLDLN
In short: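 CHO-K1 cells stably expressing hTGR5, in PBS with IBMX and cAMP antibody, treated with half-log compound dilutions for 1 h at room temperature. cAMP measured by enzyme-fragment complementation luminescence after overnight detection; EC50 values reported.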

Row | Structure (SMILES) | EC50 (mouse TGR5 receptor) | EC50 (human TGR5 receptor)
1 | O=C(O)CNS(=O)(=O)CCNC(=O)CCCC1CCN(c2cc(N3CCC[C@H]3C(=O)NCCc3ccc(C(F)(F)F)cc3)nc(C(F)(F)F)n2)CC1 [Compound 114, (S)-2-(2-(4-(1-(2-(trifluoromethyl)-6-(2-((4-(trifluoromethyl)phenethyl)-carbamoyl)-pyrrolidin-1-yl)pyrimidin-4-yl)piperidin-4-yl)butanamido)ethyl-sulfonamido)acetic acid] | < 100 nM | < 100 nM
2 | N#Cc1ccc(CCNC(=O)[C@@H]2CCN2c2cc(N3CCC(CO)CC3)nc(C(F)(F)F)n2)cc1 [Compound 219, (S)—N-(4-cyanophenethyl)-1-(6-(4-(hydroxymethyl)piperidin-1-yl)-2-(trifluoromethyl)pyrimidin-4-yl)azetidine-2-carboxamide] |  | < 100 nM
3 | N#Cc1ccc(CCNC(=O)[C@@H]2CCN2c2cc(N3CCC(CCNC(=O)NCCOCCNC(=O)NCCS(=O)(=O)O)CC3)nc(C(F)(F)F)n2)cc1 [Compound 358, (S)-15-(1-(6-(2-((4-cyanophenethyl)carbamoyl)azetidin-1-yl)-2-(trifluoromethyl)pyrimidin-4-yl)piperidin-4-yl)-4,12-dioxo-8-oxa-3,5,11,13-tetraazapentadecane-1-sulfonic acid] | < 100 nM | < 100 nM
4 | N#Cc1ccc(CCNC(=O)[C@@H]2CCCN2c2cc(N3CCC(CCCC(=O)NCC(=O)O)CC3)nc(C(F)(F)F)n2)cc1 [Compound 103, (S)-2-(4-(1-(6-(2-((4-cyanophenethyl)carbamoyl)pyrrolidin-1-yl)-2-(trifluoromethyl)pyrimidin-4-yl)piperidin-4-yl)butanamido)acetic acid] | < 100 nM | < 100 nM
5 | N#Cc1ccc(CCNC(=O)[C@@H]2CCCN2c2cc(N3CCC(CCNC(=O)NCCS(=O)(=O)NCC(=O)O)CC3)nc(C(F)(F)F)n2)cc1 [Compound 107] | < 100 nM | < 100 nM
6 | N#CCCN1CCN(c2cc(N3CCC[C@H]3C(=O)NCCc3ccc(C#N)cc3)nc(C(F)(F)F)n2)CC1 [Compound 32] | < 100 nM | < 100 nM
7 | N#Cc1ccc(CCNC(=O)[C@@H]2CCCN2c2cc(N3CCC(CCNS(=O)(=O)CCNC(=N)N)CC3)nc(C(F)(F)F)n2)cc1 [Compound 130, (S)-N-(4-cyanophenethyl)-1-(6-(4-(2-(2-guanidinoethylsulfonamido)ethyl)piperidin-1-yl)-2-(trifluoromethyl)pyrimidin-4-yl)pyrrolidine-2-carboxamide] | < 100 nM | < 100 nM
8 | N#Cc1ccc(CCNC(=O)[C@@H]2CCCN2c2cc(N3CCC(CCNC(=N)N)CC3)nc(C(F)(F)F)n2)cc1 [Compound 126, (S)—N-(4-cyanophenethyl)-1-(6-(4-(2-guanidinoethyl)piperidin-1-yl)-2-(trifluoromethyl)pyrimidin-4-yl)pyrrolidine-2-carboxamide] | < 100 nM | < 100 nM
9 | COCC1CCN(c2cc(N3CCC[C@H]3C(=O)NCCc3ccc(C#N)cc3)nc(C(F)(F)F)n2)CC1 [Compound 24] |  | < 100 nM
10 | N#Cc1ccc(CCNC(=O)[C@@H]2CCCN(c3cc(N4CCC(CO)CC4)nc(C(F)(F)F)n3)C2)cc1 [Compound 308, (R)—N-(4-cyanophenethyl)-1-(6-(4-(hydroxymethyl)piperidin-1-yl)-2-(trifluoromethyl)pyrimidin-4-yl)piperidine-3-carboxamide] |  | < 100 nM
11 | N#Cc1ccc(CCNC(=O)[C@@H]2CCCN2c2cc(N3CCC(CCN)CC3)nc(C(F)(F)F)n2)cc1 [Compound 50, (S)-1-(6-(4-(2-aminoethyl)piperidin-1-yl)-2-(trifluoromethyl)pyrimidin-4-yl)-N-(4-cyanophenethyl)pyrrolidine-2-carboxamide] |  | < 100 nM

Now from value to compound:

Row | EC50 (mouse TGR5 receptor) | EC50 (human TGR5 receptor) | Structure (SMILES)
12 | < 100 nM | < 100 nM | N#Cc1ccc(CCNC(=O)[C@@H]2CCCN2c2cc(-c3ccc(CO)cc3)cc(C(F)(F)F)n2)cc1 [Compound 204, (S)—N-(4-cyanophenethyl)-1-(4-(4-(hydroxymethyl)phenyl)-6-(trifluoromethyl)pyridin-2-yl)pyrrolidine-2-carboxamide]
13 | < 100 nM | < 100 nM | N#Cc1ccc(CCNC(=O)[C@@H]2CCCN2c2cc(N3CCC(CCNC(=O)NCCC(=O)NCCS(=O)(=O)O)CC3)nc(C(F)(F)F)n2)cc1 [Compound 113, (S)-2-(3-(3-(2-(1-(6-(2-((4-cyanophenethyl)carbamoyl)pyrrolidin-1-yl)-2-(trifluromethyl)pyrimidin-4-yl)piperidin-4-yl)ethyl)ureido)-propanamido)-ethanesulfonic acid]
14 | < 100 nM | < 100 nM | N#Cc1ccc(CCNC(=O)[C@@H]2CCN2c2cc(N3CCC(CCNC(=O)NCCOCCNC(=O)CS(=O)(=O)O)CC3)nc(C(F)(F)F)n2)cc1 [Compound 356, (S)-1-(1-(6-(2-((4-cyanophenethyl)carbamoyl)azetidin-1-yl)-2-(trifluoromethyl)pyrimidin-4-yl)piperidin-4-yl)-4,12-dioxo-8-oxa-3,5,11-triazatridecane-13-sulfonic acid]
15 | < 100 nM | < 100 nM | N=C(N)N[C@@H](CCC(=O)NCCCC1CCN(c2cc(N3CCC[C@H]3C(=O)NCCc3ccc(C(F)(F)F)cc3)nc(C(F)(F)F)n2)CC1)C(=O)O [Compound 133, (S)-2-guanidino-5-oxo-5-((3-(1-(2-(trifluoromethyl)-6-((S)-2-((4-(trifluoromethyl)phenethyl)carbamoyl)pyrrolidin-1-yl)pyrimidin-4-yl)piperidin-4-yl)propyl)amino)pentanoic acid]
16 | < 100 nM | < 100 nM | COc1cc(C(F)(F)F)ccc1CCNC(=O)[C@@H]1CCN1c1cc(N2CCC(CCC(=O)NCCS(=O)(=O)O)CC2)nc(C(F)(F)F)n1 [Compound 259]
17 | < 100 nM | < 100 nM | N#Cc1ccc(CCNC(=O)[C@@H]2CCN2c2cc(N3CCC(CCCC(=O)NCCOCCNC(=N)N)CC3)nc(C(F)(F)F)n2)cc1 [Compound 284, (S)-N-(4-cyanophenethyl)-1-(6-(4-(4-((2-(2-guanidinoethoxy)-ethyl)amino)-4-oxobutyl)piperidin-1-yl)-2-(trifluoromethyl)pyrimidin-4-yl)azetidine-2-carboxamide]
18 | < 100 nM | < 100 nM | N#Cc1ccc(CCNC(=O)[C@@H]2CCCN2c2cc(N3CCC(CCCC(=O)O)CC3)cc(C(F)(F)F)n2)cc1 [Compound 197, (S)-4-(1-(2-(2-((4-cyanophenethyl)carbamoyl)pyrrolidin-1-yl)-6-(trifluoromethyl)pyridin-4-yl)piperidin-4-yl)butanoic acid]
19 | < 100 nM | < 100 nM | N#Cc1ccc(CCNC(=O)[C@@H]2CCCN2c2cc(N3CCC(OCC#CCS(=O)(=O)O)CC3)nc(C(F)(F)F)n2)cc1 [Compound 134, (S)-4-((1-(6-(2-((4-cyanophenethyl)carbamoyl)pyrrolidin-1-yl)-2-(trifluoromethyl)pyrimidin-4-yl)piperidin-4-yl)oxy)but-2-yne-1-sulfonic acid]
20 | < 100 nM | < 100 nM | N#Cc1ccc(CCNC(=O)[C@@H]2CCN2c2cc(N3CCC(CCNC(=O)NCCS(N)(=O)=O)CC3)nc(C(F)(F)F)n2)cc1 [Compound 269, (S)—N-(4-cyanophenethyl)-1-(6-(4-(2-(3-(2-sulfamoylethyl)ureido)ethyl)piperidin-1-yl)-2-(trifluoromethyl)pyrimidin-4-yl)azetidine-2-carboxamide]
21 | < 100 nM | < 100 nM | N#Cc1ccc(CCNC(=O)[C@@H]2CCCN2c2cc(N3CCC(CCNc4c(NCP(=O)(O)O)c(=O)c4=O)CC3)nc(C(F)(F)F)n2)cc1 [Compound 369, (S)-(((2-((2-(1-(6-(2-((4-cyanophenethyl)carbamoyl)pyrrolidin-1-yl)-2-(trifluoromethyl)pyrimidin-4-yl)piperidin-4-yl)ethyl)amino)-3,4-dioxocyclobut-1-en-1-yl)amino)methyl)phosphonic acid]
22 | < 100 nM | < 100 nM | O=C(CCCC1CCN(c2cc(N3CCC[C@H]3C(=O)NCCc3ccc(C(F)(F)F)cc3)nc(C(F)(F)F)n2)CC1)NCCCS(=O)(=O)O [Compound 60, (S)-3-(4-(1-(2-(trifluoromethyl)-6-(2-((4-(trifluoromethyl)phenethyl)carbamoyl)pyrrolidin-1-yl)pyrimidin-4-yl)piperidin-4-yl)butanamido)propane-1-sulfonic acid]
23 |  | < 100 nM | N#Cc1ccc(CCNC(=O)[C@@H]2CCCN2c2cc(N3CCC(CCO)CC3)nc(C(F)(F)F)n2)cc1 [Compound 22]
